Data set [1] has as its system Chinese hamster ovary (CHO) cells. Put plainly: In vitro transfection of CHO cells with different lipid-based vectors plus disaccharides, GFP-positive percentage. The class given is cell-based. The following applies: 120 mM disaccharide; DOTAP, DOTAP/Chol, DOTAP/DOPE, DC-Chol/DOPE or LPD vector. The source says:
FIGS. 3A and 3B present the effects of disaccharides on the transgene expression of cultured Chinese hamster ovary (CHO) cells subjected to an in vitro transfection of DNA with a transfection reagent containing different lipid-based vectors plus different disaccharides. The x-axis in FIGS. 3A and 3B represents the lipid composition, and the y-axis represents the GFP-positive percentage of the transfected CHO cells, which is used as an indicator for transfection efficiency. In the experiments shown in FIGS. 3A and 3B, DOTAP, DOTAP/Chol, DOTAP/DOPE, DC-Chol/DOPE or LPD applied as a vector is incorporated into a pEGFP-C1 plasmid-containing transfection reagent. Thereafter, 120 mM of various disaccharides is incorporated into the transfection reagent, and in vitro cell transfection is performed followed by detecting the cell percentage of GFP expression.

The subject of another data set is lung tissues. Nature of the data set: In vivo transfection by tail vein injection of gWiz-luciferase plasmid with lipid-based vectors plus disaccharides, luciferase activity in lung. Also on record: species or system mouse. The method, then:
FIG. 4A presents the effects of disaccharides on the transgene expression after intravenous injection of DOTAP-based vectors with various disaccharides by way of mouse tail vein. Various concentrations of […] and […] are respectively incorporated into the transfection reagent containing the gWiz-luciferase plasmid and DOTAP liposomes. The transfection reagent is administered via intravenous injection through the tail vein of a 4-6 weeks old ICR (CD-1) […]. The […] is sacrificed 24 hour after the intravenous injection, and the activity of luciferase in the lung tissues of the […] is observed. The x-axis in FIG. 4A represents the disaccharide concentration in the tranfection reagent, and the y-axis in FIG. 4 represents the luminescent intensity, measured by a luminometer and expressed as relative light unit (RLU) per mg of lung tissue protein. The luminescent intensity is used as an indicator of transfection efficiency. […] Accordingly, cellobiose and trehalose can improve the efficiency of cell transfection in vivo, and the transfection efficiency increases as the concentration of the disaccharide increases. FIG. 4B presents the effects of disaccharides on the transgene expression after intravenous injection of different lipid-based vectors with various disaccharides by way of mouse tail vein. DOTAP, DOTAP/chol and LPD are respectively added as a vector into the tranfection reagent containing gWiz-luciferase plasmid. A concentration of 330 mM cellobiose or trehalsoe is incorporated into the transfection reagent. The transfection reagent is then intravenously injected into the animal for cell transfection. The x-axis in FIG. 4B represents the type of the lipid-based vector, and the y-axis in FIG. 4B represents the luminescent intensity, measured by a luminometer and expressed as relative light unit (RLU) per mg of lung tissue protein.

Data set [2] concerns Chinese hamster ovary (CHO) cells. Put plainly: In vitro transfection of CHO cells with pEGFP-C1 plasmid and DOTAP liposomes plus disaccharides, GFP by flow cytometer. It is filed as cell-based. As to conditions: DOTAP liposomes; for effect on transfection efficiency: appropriate amount of disaccharide. The source says: FIG. 2 present the effects of disaccharides on the transgene expression of cultured Chinese hamster ovary (CHO) cells subjected to an in vitro transfection of DNA with a transfection reagent containing DOTAP and various disaccharides. The x-axis in FIG. 2 refers to the disaccharide concentration in the transfection reagent, and the y-axis in FIG. 2 represents the GFP (green fluorescent protein)-positive percentage of the transfected CHO cells measured by a flow cytometer. The GFP-positive percentage of the CHO cells is used as an indicator of transfection efficiency. In the experiments shown in FIG. 2, various concentrations of cellobiose, lactose, sucrose, trehalose and maltose are respectively incorporated into a transfection reagent containing pEGFP-C1 plasmid and DOTAP liposomes, and in vitro transfections are performed with the transfection reagents containing different disaccharides. The GFP-positive percentage of CHO cells is then detected for each transfection reagent sample. […] In other words, the incorporation of a disaccharide into the transfection reagent affects the transfection efficiency. Moreover, the changes in transfection efficiency are related to the type and the concentration of the disaccharide in the transfection reagent. […] More particularly, the transfection efficiency increases from 28% to more than 40% at 180 mM of lactose, sucrose or trehalose in a transfection reagent. The transfection efficiency is doubled when 120 mM of cellobiose is incorporated into a transfection reagent.

The subject of another data set is mouse muscles. Nature of the data set: In vivo transfection of muscles by direct intramuscular injection of naked plasmid plus disaccharides, luciferase luminescence. The following applies: naked plasmid, 10 mM disaccharide. The method, then: The following experiments are conducted using naked nucleic acid delivery system for directly transfecting plasmid DNA into the cells of animals, and additional viral or non-viral vector is precluded. The transfection reagent is incorporated with various concentrations of disaccharides as an enhancer, and the effects of disaccharides in the naked nucleic acid delivery system on the cell transfection are observed.
FIG. 9 presents the effects of various disaccharides on the transgene expression of mouse muscles after direct intramuscular injection of naked plasmid. The transfection procedures in these experiments are identical to those described previously in experiment 3. The major differences between the two experiments are the vector applied and the method of transfection as well as the administration route into the body of the […]. The x-axis in FIG. 9 represents the types of disaccharides, and the y-axis represents the luminescent intensity, measured by a luminometer and expressed as relative light unit (RLU) per mg of muscular tissue protein, wherein the luminescent intensity is used as an indicator to evaluate the transfection efficiency.
FIG. 10 presents the effects of trehalose concentrations on the transgene expression of mouse muscles after direct intramuscular injection of naked plasmid. The x-axis in FIG. 10 represents the concentrations of trehalose in the transfection reagent, and the y-axis represents the luminescent intensity, measured by a luminometer and expressed as relative light unit (RLU) per mg of muscular tissue protein. The luminescent intensity is used as an indicator to evaluate transfection efficiency.
[…] presents the effects of gene dosage on the transgene expression of mouse muscles in the presence of trehalose after direct intramuscular injection of naked plasmid. The x-axis in FIG. 11 represents the amount of DNA plasmid, and the y-axis represents the luminescent intensity, measured by a luminometer and expressed as relative light unit (RLU) per mg of muscular tissue protein, wherein the luminescent intensity is used as an indicator to evaluate the transfection efficiency.
FIG. 12 presents the effects of the trehalose on the durations of transgene expression of mouse muscles after direct intramuscular injection of naked plasmid. The x-axis in FIG. 12 represents the days after the intramuscular injection, and the y-axis represents the luminescent intensity, measured by a luminometer and expressed as relative light unit (RLU) per mg of muscular tissue protein, wherein the luminescent intensity is used as an indicator to evaluate the transfection efficiency of gWiz-luciferase plasmid. […] In other words, trehalose might extend the durations of nucleic acid remaining inside the cells, and therefore prolonged the durations of transgene expression.

Where [3] appears, read: DOTAP liposomes, i.v. tail vein, 24 hour, 330 mM disaccharide.

On to `O=C[C@H](O)[C@@H](O)[C@H](O[C@@H]1O[C@H](CO)[C@@H](O)[C@H](O)[C@H]1O)[C@H](O)CO` [cellobiose], for which the “effect on transfection efficiency (GFP-positive percentage)” value (from here on “effect … (GFP-positive percentage)”) in data set [1] is listed as “significantly enhances the transfection efficiency”. In the data set with lung tissues (330 mM disaccharide, DOTAP, DOTAP/Chol or LPD vector, i.v.), the “effect on transfection efficiency (luminescent intensity, lung)” value is on record as “significant increase in transfection efficiency”. For the same compound, the “luminescent intensity in the lung tissue (RLU per mg of lung tissue protein)” value in the data set with lung tissues (DOTAP liposomes, i.v. tail vein, 24 hour, 180 mM disaccharide) is on record as “increase the luminescent intensity significantly”. Also, in the data set on lung tissues (setting [3]), the “increase of luciferase expression of lung” value was “more than 10 fold” and the “luminescent intensity in the lung tissue (RLU per mg of lung tissue protein)” value is recorded as “increases noticeably”. Also, in the data set with CHO cells, the “cellular viability analyzed by the MTT assay” value (“cellular viability analyzed” for short) is “improve the cellular viabilities”. Moreover, the “change of transfection efficiency” value in data set [2] (120 mM cellobiose) is “doubled”. For the same compound, the “effect on transfection efficiency” value in data set [2] was “increases significantly”.

Turning to `OC[C@H]1O[C@@H](O[C@H]2[C@H](O)[C@@H](O)C(O)O[C@@H]2CO)[C@H](O)[C@@H](O)[C@H]1O` (some centres unmarked) [lactose], the “effect … (GFP-positive percentage)” value in data set [1] is “significantly enhances the transfection efficiency”. Further, the “luminescent intensity (RLU per mg of muscular tissue protein) versus control group without disaccharides” value with mouse muscles is listed as “higher luminescent intensity”. In addition, the “cellular viability analyzed” value with CHO cells was “improve the cellular viabilities”. Moreover, the “effect on transfection efficiency” value in data set [2] is listed as “increases significantly”.

With `OC[C@H]1O[C@H](O[C@H]2[C@H](O)[C@@H](O)[C@H](O)O[C@@H]2CO)[C@H](O)[C@@H](O)[C@@H]1O` [maltose], the “cellular viability analyzed” value with CHO cells was “improve the cellular viabilities”. In data set [2], the “effect on transfection efficiency” value is on record as “increases significantly”.

Regarding `OC[C@H]1O[C@@](CO)(O[C@H]2O[C@H](CO)[C@@H](O)[C@H](O)[C@H]2O)[C@@H](O)[C@@H]1O` [sucrose], the “effect … (GFP-positive percentage)” value in data set [1] was “significantly enhances the transfection efficiency”. Further, the “cellular viability analyzed” value in the data set with CHO cells is “improve the cellular viabilities”. The “effect on transfection efficiency” value in data set [2] is on record as “increases significantly”.

Values taken from patent publication US20090175905A1, “TRANSFECTION REAGENT AND METHOD FOR ENHANCING TRANSFECTION EFFICIENCY” (National Taiwan University of Science and Technology, priority 2008, published 2009).
